# Test results: ChEMBL document CHEMBL1123742, “Isozyme-specific enzyme inhibitors. 13. S-[5'(R)-[(N-triphosphoamino)methyl]adenosyl]-L-homocysteine, a potent inhibitor of rat methionine adenosyltransferases” (J Med Chem, 1987)
# Assays:
# Type in all cases: protein assay
# [1] = biological target: T1, S-adenosylmethionine synthetase (MAT 1 and MAT 2) (Rattus norvegicus, UniProt P13444+P18298); experiment: Inhibition constant of compound with Novikoff ascitic hepatoma (M-T) form of rat methionine adenosyltransferase when ATP was used as variable substrate;Competitive type of inhibition
# [2] = biological target: T1, S-adenosylmethionine synthetase (MAT 1 and MAT 2); experiment: Inhibition constant of compound with kidney (M-2) form of rat methionine adenosyltransferase when ATP was used as variable substrate;Competitive type of inhibition
# [3] = biological target: T1, S-adenosylmethionine synthetase (MAT 1 and MAT 2); experiment: Inhibition constant of compound with kidney (M-2) form of rat methionine adenosyltransferase when methionine was used as variable substrate;Simple non-competitive type of inhibition
# [4] = biological target: T1, S-adenosylmethionine synthetase (MAT 1 and MAT 2); experiment: Inhibition constant of compound with Novikoff ascitic hepatoma (M-T) form of rat methionine adenosyltransferase when methionine was used as variable substrate;Simple non-competitive type of inhibition
Structure (SMILES),Ki [1],Ki [2],Ki [3],Ki [4]
Nc1ncnc2c1ncn2[C@@H]1O[C@H]([C@@H](CNP(=O)(O)OP(=O)(O)OP(=O)(O)O)SCCC(N)C(=O)O)[C@@H](O)[C@H]1O (some centres undefined),20 µM,,,
Nc1ncnc2c1ncn2C1O[C@H](CCNP(=O)(O)OP(=O)(O)OP(=O)(O)O)[C@@H](O)[C@H]1O (some centres undefined),,14 µM,580 µM,
Nc1ncnc2c1ncn2C1O[C@H]([C@H](CNP(=O)(O)OP(=O)(O)OP(=O)(O)O)SCCC(N)C(=O)O)[C@@H](O)[C@H]1O (some centres undefined),0.27 µM,0.36 µM,3 µM,2.3 µM

# Results, then the compound that gave them:
Ki [1],Ki [2],Ki [3],Ki [4],Structure (SMILES)
,39 µM,,,"Nc1ncnc2c1ncn2[C@@H]1O[C@H](C(CP(=O)(O)OP(=O)(O)OP(=O)(O)O)SCCC(N)C(=O)O)[C@@H](O)[C@H]1O (single isomer, unassigned; isomer A)"
,180 µM,,,"Nc1ncnc2c1ncn2[C@@H]1O[C@H](C(CP(=O)(O)OP(=O)(O)OP(=O)(O)O)SCCC(N)C(=O)O)[C@@H](O)[C@H]1O (single isomer, unassigned; isomer B)"
